Results published in patent US20180021450A1, “ANTI-STAPHYLOCOCCUS AUREUS ANTIBODY RIFAMYCIN CONJUGATES AND USES THEREOF” (Genentech, Inc., priority 2014, published 2018).
≈ marks a conversion by molar mass, not a printed value. Like-named read-outs stand apart in the source and are kept apart here.

What was measured:
[1] = expected serum concentration, from Antimicrobial Agents, Bryskier (2005); cited from earlier work
[2] = system: intracellular MRSA sequestered inside murine macrophages; assay: MIC determination for intracellular bacteria inside murine peritoneal macrophages; assay type: cell-based, Staphylococcus aureus; conditions: for MIC: Staphylococcus aureus, MRSA, read-out: Intracellular MRSA MIC; for killing of MRSA sequestered inside macrophages: macrophages exposed to clinically achievable concentrations
Description: Intracellular MIC was determined on bacteria that were sequestered inside mouse peritoneal macrophages (see below for generation of murine peritoneal macrophages). Macrophages were plated in 24 well culture dishes at a density of 4×10^5 cells/mL and infected with MRSA at a ratio of 10-20 bacteria per macrophage. Macrophage cultures were maintained in growth media supplemented with 50 ug/mL of gentamycin (an antibiotic that is active only on extracellular bacteria) to inhibit the growth of extracellular bacteria and test antibiotics were added to the growth media 1 day after infection. The survival of intracellular bacteria was assessed 24 hours after addition of the antibiotics. Macrophages were lysed with Hanks Buffered Saline Solution supplemented with 0.1% Bovine Serum Albumin and 0.1% Triton-X, and serial dilutions of the lysate were made in Phosphate Buffered Saline solution containing 0.05% Tween-20. The number of surviving intracellular bacteria was determined by plating on Tryptic Soy Agar plates with 5% defibrinated sheep blood.
Peritoneal macrophages were isolated from the peritoneum of 6-8 week old Balb/c mice (Charles River Laboratories, Hollister, Calif.). To increase the yield of macrophages, mice were pre-treated by intraperitoneal injection with 1 mL of thioglycolate media (Becton Dickinson). The thioglycolate media was prepared at a concentration of 4% in water, sterilized by autoclaving, and aged for 20 days to 6 months prior to use. Peritoneal macrophages were harvested 4 days post treatment with thioglycolate by washing the peritoneal cavity with cold phosphate buffered saline. Macrophages were plated in Dulbecco's Modified Eagle Medium (DMEM) supplemented with 10% Fetal Calf Serum, and 10 mM HEPES, without antibiotics, at a density of 4×10^5 cells/well in 24 well culture dishes. Macrophages were cultured over night to permit adherence to the plate. This assay was also utilized to test intracellular killing in non-phagocytic cell types. MG63 (CRL-1427) and A549 (CCL185) cell lines were obtained from ATCC and maintained in RPMI 1640 tissue culture media supplemented with 10 mM Hepes and 10% Fetal Calf Serum (RPMI-10). HUVEC cells were obtained from Lonza and maintained in EGM Endothelial Cell Complete Media (Lonza, Walkersville, Md.).
(§1) For extracellular bacteria, MRSA was cultured overnight in Tryptic Soy Broth, and the MIC was determined to be the minimum antibiotic dose that prevented growth. For intracellular bacteria, murine peritoneal macrophages were infected with MRSA and cultured in the presence of gentamycin to kill extracellular bacteria. Test antibiotics were added to the culture medium one day post infection, and the total number of surviving intracellular bacteria was determined 24 hours later. The expected serum concentrations for clinically relevant antibiotics was reported in Antimicrobial Agents, Andre Bryskier. ASM Press, Washington D.C. (2005).

[3] = system: MRSA (NRS384 strain of USA300); assay: MIC determination for extracellular bacteria in liquid culture; assay type: cell-based; conditions: Staphylococcus aureus, read-out: Extracellular MRSA MIC
Description: The MIC for extracellular bacteria was determined by preparing serial 2-fold dilutions of the antibiotic in Tryptic Soy Broth. Dilutions of the antibiotic were made in quadruplicate in 96 well culture dishes. MRSA (NRS384 strain of USA300) was taken from an exponentially growing culture and diluted to 1×10^4 CFU/mL. The bacteria was cultured in the presence of antibiotic for 18-24 hours with shaking at 37° C. and bacterial growth was determined by reading the Optical Density (OD) at […]. The MIC was determined to be the dose of antibiotic that inhibited bacterial growth by >90%.
as §1

[4] = system: S. aureus (USA300) persister cells; assay: Killing of persister cells by free antibiotics; assay type: cell-based, Staphylococcus aureus; conditions: ciprofloxacin-treated cultures, second antibiotic 1 ug/ml
Description: Killing of persisters cells by free antibiotics: S. aureus (USA300) was taken from an overnight stationary phase culture, washed once in Tryptic Soy Broth (TSB) and then adjusted to a final concentration of 1×10^7 CFU/ml in a total volume of 10 mL of either TSB or TSB with ciprofloxicin (0.05 mM). Cultures were incubated with shaking at 37° C. for 6 hours and then the second antibiotic, either rifampicin (1 ug/ml) or another rifamycin-type antibiotic (1 ug/ml) was added. At the indicated times, samples were removed from each culture, washed once with PBS to remove the antibiotic and re-suspended in PBS. The total number of surviving bacteria was determined by plating serial dilutions of the bacteria on agar plates. At the final time point the remainder of each culture was collected and plated.

USA300 = assay: In vivo transfer of infection model in A/J mice (free vs intracellular bacteria); set-up: species or system Staphylococcus aureus; conditions: mice infected i.v. with free or intracellular bacteria, examined 4 days after infection
Description: USA300 stocks were prepared for infection from actively growing cultures in tryptic soy broth. Bacteria were washed 3× in phosphate buffered saline (PBS) and aliquots were frozen at −80° C. in PBS 25% glycerol. Intracellular Bacteria Infections: A/J mice were chosen for these experiments because they are easily infected with relatively low doses of MRSA (2×10^6 CFU/mouse). 7 week old female A/J mice were obtained from Jackson Lab and infected by peritoneal injection with 5×10^7 CFU of USA300. Mice were sacrificed 1 day post infection and the peritoneum was flushed with 5 mL of cold PBS. Peritoneal washes were centrifuged for 5 minutes at 1,000 rpm at 4° C. in a table top centrifuge. The cell pellet containing peritoneal cells was collected and cells were treated with 50 ug/mL of lysostaphin (Cell Sciences Inc. Canton Mass., CRL 309C) for 20 minutes at 37° C. to kill contaminating extracellular bacteria. Peritoneal cells were washed 3x in ice cold PBS to remove the lysostaphin. […]
These experiments compared the virulence of intracellular bacteria versus an equivalent dose of free-living planktonic bacteria, and determined whether the intracellular bacteria are able to establish infection in the presence of vancomycin in vivo. […]

MRSA = assay: In vitro transfer of infection to MG63 osteoblasts / HBMEC in the presence of vancomycin; assay type: cell-based, Staphylococcus aureus
Description: 6-8 week old female A/J mice (Jackson Lab) were infected with 1×10^8 CFU of the NRS384 strain of USA300 by peritoneal injection. The peritoneal wash was harvested 1 day post infection, and the infected peritoneal cells were treated with 50 ug/mL of lysostaphin diluted in Hepes Buffer supplemented with 0.1% BSA (HB buffer) for 30 minutes at 37° C. Peritoneal cells were then washed 2x in ice cold HB buffer. The peritoneal cells were diluted to 1×10^6 cells/mL in RPMI 1640 tissue culture media supplemented with 10 mM Hepes and 10% Fetal Calf Serum, and 5 ug/mL vancomycin. Free MRSA from the primary infection was stored overnight at 4° C. in Phosphate Buffered Saline Solution as a control for extracellular bacteria that were not subject to neutrophil killing.
MG63 cell line was obtained from ATCC (CRL-1427) and maintained in RPMI 1640 tissue culture media supplemented with 10 mM Hepes and 10% Fetal Calf Serum (RPMI-10). HBMEC cells (Catalog #1000) and ECM media (catalog#1001) were obtained from SciencCell Research Labs (Carlsbad, Calif.). Cells were plated in 24 well tissue culture plates and cultured to obtain a confluent layer. On the day of the experiment, the cells were washed once in RPMI (without supplements). MRSA or infected peritoneal cells were diluted in complete RPMI-10 and vancomycin was added at 5 ug/mL immediately prior to infection. Peritoneal cells were added to the osteoblasts at 1×10^6 peritoneal cells/mL. A sample of the cells was lysed with 0.1% triton-x to determine the actual concentration of live intracellular bacteria at the time of infection. The actual titer for all infections was determined by plating serial dilutions of the bacteria on Tryptic Soy Agar with 5% defibrinated sheep blood.
MRSA (free bacteria) was seeded in media, media+vancomycin, or media+vancomycin and plated on a monolayer of MG63 osteoblasts (FIG. 1E) or Human Brain Microvascular Endothelial Cells (HBMEC, FIG. 1F). Plates were centrifuged to promote contact of the bacteria with the monolayer. At each time point, the culture supernatant was collected to recover extracellular bacteria or adherent cells were lysed to release intracellular bacteria.

[5] = bacteria sequestered inside murine macrophages, antibiotics added one day post infection, survivors counted 24 hours later
[6] = extracellular bacteria grown in liquid culture (Tryptic Soy Broth)

Structure (SMILES): CCCCCCCCCC(=O)N[C@@H](Cc1c[nH]c2ccccc12)C(=O)N[C@H](CC(N)=O)C(=O)N[C@@H](CC(=O)O)C(=O)N[C@@H]1C(=O)NCC(=O)N[C@@H](CCCN)C(=O)N[C@@H](CC(=O)O)C(=O)N[C@H](C)C(=O)N[C@@H](CC(=O)O)C(=O)NCC(=O)N[C@H](CO)C(=O)N[C@@H]([C@H](C)CC(=O)O)C(=O)N[C@@H](CC(=O)c2ccccc2N)C(=O)O[C@@H]1C [Daptomycin]
- Serum Cmax [1]: 60 µg/mL
- MIC ([2]; 24 h): > 100 µg/mL
- killing of MRSA sequestered inside macrophages [2]: failed to kill
- MIC [3]: 4 µg/mL (≈ 2.47 µM)

Structure (SMILES): CC(=O)NC[C@H]1CN(c2ccc(N3CCOCC3)c(F)c2)C(=O)O1 [Linezolid]
- Serum Cmax [1]: 20 µg/mL
- MIC [2, 5]: > 20 µg/mL
- killing of MRSA sequestered inside macrophages [2]: failed to kill
- MIC [3, 6]: 0.3 µg/mL (≈ 0.889 µM)

Structure (SMILES): CO[C@H]1/C=C/O[C@@]2(C)Oc3c(C)c(O)c4c(O)c(c(/C=N/N5CCN(C)CC5)c(O)c4c3C2=O)NC(=O)/C(C)=C\C=C\[C@H](C)[C@H](O)[C@@H](C)[C@@H](O)[C@@H](C)[C@H](OC(C)=O)[C@@H]1C [Rifampicin]
- MIC [2, 5]: 50 µg/mL (≈ 60.8 µM)
- higher dose to eliminate intracellular MRSA compared to the dose required to inhibit growth (MIC) of planktonic bacteria ([2]; intracellular vs planktonic MRSA USA300): 6,000 fold
- MIC [3, 6]: 0.004 µg/mL (≈ 0.00486 µM)
- effect on viability of persister cells [4]: no effect

Structure (SMILES): CN[C@H](CC(C)C)C(=O)N[C@H]1C(=O)N[C@@H](CC(N)=O)C(=O)N[C@H]2C(=O)N[C@H]3C(=O)N[C@H](C(=O)N[C@H](C(=O)O)c4cc(O)cc(O)c4-c4cc3ccc4O)[C@H](O)c3ccc(c(Cl)c3)Oc3cc2cc(c3O[C@@H]2O[C@H](CO)[C@@H](O)[C@H](O)[C@H]2O[C@H]2C[C@](C)(N)[C@H](O)[C@H](C)O2)Oc2ccc(cc2Cl)[C@H]1O [Vancomycin]
- Serum Cmax [1]: 50 µg/mL
- establishment of infection (kidney, brain) under vancomycin therapy (USA300): intracellular bacteria, but not planktonic bacteria, were able to establish infection
- MIC ([2]; 24 h): > 100 µg/mL
- killing of MRSA sequestered inside macrophages [2]: failed to kill
- increase of intracellular S. aureus over a 24 hour period (MRSA; MG63 cells, primary human brain endothelial cells, A549 cells, constant exposure to vancomycin): ~10 fold
- survival of intracellular MRSA in the leukocytes (MRSA; MRSA sequestered inside peritoneal cells, vancomycin 5 ug/mL): About 15%
- surviving bacteria associated with the MG63 cells one day after infection (MRSA; planktonic bacteria plated on MG63 osteoblasts, vancomycin 5 ug/mL): approximately 0.06 % of input
- killing of planktonic bacteria exposed to vancomycin alone (MRSA; vancomycin 5 ug/mL, one day in culture): efficiently killed
- MIC [3]: 1 µg/mL (≈ 0.69 µM)
